Data taken from article PMC12684325, “SiR‐XActin: A Fluorescent Probe for Imaging Actin Dynamics in Live Cells” (Angewandte Chemie (International Ed. in English), 2025).

Tested on: T1, F-actin
T1 construct: gene ACTB; F-actin filaments
Assay: microscopy-based apparent affinity measurement for F-actin (fluorescent probe; fixed-cell staining)

Substance	Kd
SiR-actin [compound 2]	6 nM
SiR-XActin [compound 8]	557 nM
